Experimental data reported in article PMC12067093, “Discovery and optimisation of a covalent ligand for TRIM25 and its application to targeted protein ubiquitination” (Chemical Science, 2025).

How the values were obtained:
live THP-1 cells = assay: IA-DTB competitive chemoproteomics in live THP-1 cells, proteome-wide off-targets; assay type: cell-based, 9606; conditions: compound 50 μM, 4 h at 37 °C
[1] = molecular target: T1, TRIM25 (peptide FTYC^498SQVLGLHC^506YK) (Homo sapiens, UniProt Q14258); assay: IA-DTB competitive chemoproteomics in live THP-1 cells; assay type: cell-based, 9606; conditions: 4 h at 37 °C, compound tested at 50 μM and 10 μM, significant if FC ≤ 0.25, p-value ≤ 0.01
T1 construct: endogenous in cells; host or cells: THP-1

[2] = molecular target: T2, TRIM25 (full-length, His10-TRIM25) (Homo sapiens, UniProt Q14258); assay: In vitro TRIM25 auto-ubiquitination time course assay; assay type: biochemical; conditions: TRIM25 4 μM pre-treated with compound 50 μM for 16 h at 4 °C, versus DMSO; assay 60 min at 30 °C
T2 construct: Full-length recombinant TRIM25 was pre-treated with either DMSO, 10 or 11; made in house; host or cells: Sf9 insect cells
Description: 1 Glutathione reactivity assay
2 Glutathione consumption assay was outsourced to Cyprotex, where the experimental
3 procedure was optimised and performed. 10 mM DMSO stocks of fragments 1 and 2,
5 diluted with 5 mM glutathione in PBS. The reaction was shaken before incubation at
6 40 °C. The reaction mixture was analysed via UPLC-UV-MS up to eight times across
7 24 hours, compared to known reference compounds and samples of each compound
8 in distilled water. UPLC conditions: flow rate 800 µL/min on an Acquity UPLC BEH
9 C18 1.7 µm 2.1 x 50 mm column, with column temperature 37°C, monitored at 210 to
10 350 nm. Samples were run using a 2 min gradient elution from 97% mobile phase A
11 to 0% mobile phase A, where mobile phase A was 0.1% formic acid in H2O, and mobile
12 phase B was 0.1% formic acid in 100% MeCN. MS conditions: single quad, ESI+, with
13 scan range of 50 – 1000 Da. […]
15 (k) for each compound was determined from the slope of a linear regression fit for a […]
17 differential for the eight time points. t1/2 values were calculated as follows: t1/2 = 0.693/k. […]
2 indicates the sample taken prior to the addition of ATP. Samples were analysed by […]
16 added directly to the ubiquitination assay reaction mixture. Samples were analysed as […]
18 which was detected by anti-rabbit-HRP secondary antibody (Dako, P0399, 1:2000). […]
21 analysed in ImageLab (Bio-Rad). […]

T2 sequence (Q14258 whole entry): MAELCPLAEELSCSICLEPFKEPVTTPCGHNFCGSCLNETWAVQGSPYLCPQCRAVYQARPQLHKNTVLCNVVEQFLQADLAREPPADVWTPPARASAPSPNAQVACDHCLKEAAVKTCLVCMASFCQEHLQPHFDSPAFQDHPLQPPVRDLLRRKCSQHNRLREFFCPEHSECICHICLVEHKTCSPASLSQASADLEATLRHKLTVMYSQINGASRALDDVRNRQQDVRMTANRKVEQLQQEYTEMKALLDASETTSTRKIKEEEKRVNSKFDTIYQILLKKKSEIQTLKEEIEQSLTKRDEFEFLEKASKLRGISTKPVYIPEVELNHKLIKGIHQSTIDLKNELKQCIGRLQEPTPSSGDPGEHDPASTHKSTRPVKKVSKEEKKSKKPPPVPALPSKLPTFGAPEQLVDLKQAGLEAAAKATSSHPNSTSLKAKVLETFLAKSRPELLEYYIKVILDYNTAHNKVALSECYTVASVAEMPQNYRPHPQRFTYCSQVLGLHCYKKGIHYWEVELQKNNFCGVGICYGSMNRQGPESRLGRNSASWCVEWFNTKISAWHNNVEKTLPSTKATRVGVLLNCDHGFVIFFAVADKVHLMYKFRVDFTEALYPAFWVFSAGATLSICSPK
T1 sequence (Q14258 whole entry): as above

| Compound | number of other protein targets competed (live THP-1 cells) | TRIM25 engagement in cells [1] | rate of TRIM25 auto-ubiquitination [2] |
| --- | --- | --- | --- |
| Cc1cc(C(=O)N2CCCN(C(=O)CCl)CC2)ccc1-c1ccccc1 [Compound 10] | 50 | engaged TRIM25 in cells at the PRYSPRY domain at 50 μM | significantly increased |
| CC1Cc2ccccc2N1C(=O)C1CCCN(C(=O)CCl)C1 (centres unmarked) [Compound 11] | – | not observed to engage TRIM25 | significantly increased |
